What was measured:
[1] = system: 2% formalin model in SD rats; assay: Formalin-induced pain model; format: in vivo; settings: 3 mg/kg p.o.; for inhibition in vivo at 3 mg/kg: Rattus norvegicus, po, 1 h, movements (lifts and licks) 0-60 min after formalin, read-out: MPE % (Maximum Possible Effect)
Description: A diluted formalin solution is injected subcutaneously into the hind paw of rats using a microsyringe, creating a continuous noxious stimulus that induces spontaneous pain behaviors in the animals. The experiment can record the number of lifts and licks of the rat's foot through an autonomous movement analyzer to assess the degree of pain. This experiment uses a 2% formalin model in SD rats and tests the analgesic activity of compounds by oral administration. After injecting 2% formalin, the number of movements (lifts and licks of the injected foot) from 0-60 min after injecting the formalin solution is recorded and analyzed.
The Maximum Possible Effect (MPE %) is calculated as a percentage:
Note: (1) MPE % for each group is calculated with sham group MPE=100% and vehicle group MPE=0% as standards. (2) Movement counts of the sham group are subtracted to exclude the impact of background noise on the experiment. (2) “Sham” represents the average value of the sham group; “Vehicle-Sham” represents the average value of the vehicle group minus the sham group.
Results are presented as mean values with standard error. Data from each group are analyzed and graphed using GraphPad Prism 8 software. Statistical analysis is conducted using one-way ANOVA to determine statistical differences between groups, with t-tests used for comparisons between two groups. A p-value <0.05 is considered statistically significant.

[2] = biological target: T1, human recombinant MAGL (monoacylglycerol lipase) (Homo sapiens, UniProt Q99685); assay: In vitro MAGL enzyme inhibition assay (Cayman Monoacylglycerol Lipase Inhibitor Screening Assay, 4-nitrophenylacetate hydrolysis); format: biochemical; settings: 4-nitrophenylacetate substrate, 15 min preincubation, absorbance 405-415 nm
T1 construct: purchased Cayman Chemical Item No. 705192
T1 sequence (Q99685 1-303): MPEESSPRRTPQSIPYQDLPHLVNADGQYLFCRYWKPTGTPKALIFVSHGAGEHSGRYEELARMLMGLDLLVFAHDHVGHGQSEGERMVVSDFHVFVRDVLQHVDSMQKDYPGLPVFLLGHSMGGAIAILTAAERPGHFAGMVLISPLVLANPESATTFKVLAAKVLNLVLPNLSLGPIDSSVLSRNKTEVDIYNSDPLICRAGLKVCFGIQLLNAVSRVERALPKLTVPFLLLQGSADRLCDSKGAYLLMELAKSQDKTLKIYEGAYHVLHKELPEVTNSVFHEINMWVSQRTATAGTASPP
Description: Monoacylglycerol Lipase Inhibitor Screening Assay provides a convenient method for screening human MAGL inhibitors.
Dilute 3 ml of MAGL Assay Buffer (10×) concentrate with 27 ml of ultrapure water. This final 1× Assay Buffer (10 mM Tris-HCl, pH 7.2, containing 1 mM EDTA) should be used in the assay and for the dilution of MAGL enzyme, substrate, and MAGL inhibitor. The 1× Assay Buffer is stable for at least six months if stored at −20° C.
The vial contains 0.5 ml of 17 mM ethanolic solution of 4-nitrophenylacetate. Mix 150 μL of this solution with 450 μl of 1× Assay Buffer prior to testing. This is enough substrate to assay 50 wells. Dilute additional substrate if using the entire plate.
This vial contains 100 μl of a solution of human recombinant MAGL (monoacylglycerol lipase). The thawed enzyme should be stored on ice. Dilute 30 μl of enzyme with 570 μl of 1×MAGL Assay Buffer. This is enough enzyme to assay 50 wells. Dilute additional enzyme if using the entire plate. The diluted enzyme is stable for four hours on ice.
This vial contains 20 nmol of inhibitor. Resuspend in 125 μl of DMSO, then add 125 μl of 1× Assay Buffer and vortex to make an 80 μM stock.
1). 100% Initial Activity Wells—add 150 μl of 1× Assay Buffer, 10 μl of MAGL enzyme, and 10 μl of solvent (same solvent used to dissolve the inhibitor) to three wells.
2). Background Wells—add 160 μl of 1× Assay Buffer and 10 μl of solvent (same solvent used to dissolve the inhibitor) to three wells.
3). Inhibitor/Positive Control Wells—add 150 μl of 1× Assay Buffer, 10 μl of MAGL enzyme, and 10 μl of inhibitor* or positive control inhibitor to the inhibitor wells.
4). Mix the contents of the wells by pipetting gently up and down and incubate for 15 minutes at room temperature. The incubation time for different inhibitors may vary and will need to be optimized by the user.
5). Initiate the reactions by adding 10 μl of MAGL Substrate to all the wells being used. Carefully shake the 96-well plate for 10 seconds to mix and cover with the plate cover. Incubate for ten minutes at room temperature.
6). […] (Tecan Spark 10M Multimode Plate Reader)
1). Determine the average absorbance of each sample.
2). Subtract the average absorbance of the background wells from the average absorbance of the 100% initial activity and the inhibitor wells.
3). Determine the percent inhibition or percent activity for each inhibitor using one of the following equations: […]

Q: `O=C(OC(C(F)(F)F)C(F)(F)F)N1CCN(Cc2ccc(C(F)(F)F)cc2N2CCCC2)CC1` [ABX-1431, reference compound] was tested. Which “Experimental Results (analgesic activity in the formalin model)” value (“Experimental Results” for short) [1] did it give?
A: The value was “effective”.

Q: And the inhibition in vivo at 3 mg/kg [1]?
A: Its inhibition in vivo at 3 mg/kg is 33%.

Q: `O=C(OC(C(F)(F)F)C(F)(F)F)N1CCC(c2cc3n(n2)-c2ccc(F)cc2CC3)CC1` [Compound 1, 1,1,1,3,3,3-hexafluoropropan-2-yl 4-(7-fluoro-4,5-dihydropyrazolo[1,5-a]quinolin-2-yl)piperidine-1-carboxylate] was tested. Which IC50 [2] did it give?
A: The IC50 was < 0.1 nM.

Q: What about the “Experimental Results” value [1] of the same compound?
A: Its value is “effective”.

Q: What about the inhibition in vivo at 3 mg/kg [1] of the same compound?
A: Its inhibition in vivo at 3 mg/kg is 68%.

Q: With `O=C(OC(CO)C(F)(F)F)N1CCC(c2cc3n(n2)-c2ccc(F)cc2CC3)CC1` (stereo not drawn) [Compound 2, 1,1,1-trifluoro-3-hydroxypropan-2-yl 4-(7-fluoro-4,5-dihydropyrazolo[1,5-a]quinolin-2-yl)piperidine-1-carboxylate] as the compound, how does the IC50 [2] read?
A: Its IC50 is 16 nM.

Q: What about the “Experimental Results” value [1] of the same compound?
A: Its value is “effective”.

Q: What about the inhibition in vivo at 3 mg/kg [1] of the same compound?
A: The inhibition in vivo at 3 mg/kg was 45%.

Q: Which results are given for `O=C(OC(CO)C(F)(F)F)N1CCC(c2nn3c(c2F)CCc2cc(F)ccc2-3)CC1` (stereo not drawn) [Compound 3, 1,1,1-trifluoro-3-hydroxypropan-2-yl 4-(3,7-difluoro-4,5-dihydropyrazolo[1,5-a]quinolin-2-yl)piperidine-1-carboxylate]?
A: Experimental Results (analgesic activity in the formalin model) [1]: effective; inhibition in vivo at 3 mg/kg [1]: 61%

Q: `O=C(OC(CO)C(F)(F)F)N1CCC(c2nn3c(c2Cl)CCc2cc(F)ccc2-3)CC1` (stereo not drawn) [Compound 4, 1,1,1-trifluoro-3-hydroxypropan-2-yl 4-(3-chloro-7-fluoro-4,5-dihydropyrazolo[1,5-a]quinolin-2-yl)piperidine-1-carboxylate] was tested. Which “Experimental Results” value [1] did it give?
A: The value was “effective”.

Q: What about the inhibition in vivo at 3 mg/kg [1] of the same compound?
A: The inhibition in vivo at 3 mg/kg was 51%.

Q: For `O=C(OC(CO)C(F)(F)F)N1CCC(c2nn3c(c2Br)CCc2cc(F)ccc2-3)CC1` (stereo not drawn) [Compound 5, 1,1,1-trifluoro-3-hydroxypropan-2-yl 4-(3-bromo-7-fluoro-4,5-dihydropyrazolo[1,5-a]quinolin-2-yl)piperidine-1-carboxylate], which IC50 [2] is on record?
A: Its IC50 is 37.1 nM.

Q: What about the “Experimental Results” value [1] of the same compound?
A: The value was “effective”.

Q: And the inhibition in vivo at 3 mg/kg [1]?
A: Its inhibition in vivo at 3 mg/kg is 44%.

Q: How did the IC50 [2] turn out when `Cc1c(C2CCN(C(=O)OC(CO)C(F)(F)F)CC2)nn2c1CCc1cc(F)ccc1-2` (stereo not drawn) [Compound 6, 1,1,1-trifluoro-3-hydroxypropan-2-yl 4-(7-fluoro-3-methyl-4,5-dihydropyrazolo[1,5-a]quinolin-2-yl)piperidine-1-carboxylate] was run?
A: The IC50 was 16.7 nM.

Q: What about the “Experimental Results” value [1] of the same compound?
A: Its value is “effective”.

Q: What about the inhibition in vivo at 3 mg/kg [1] of the same compound?
A: The inhibition in vivo at 3 mg/kg was 44%.

Q: For `O=C(OC(CO)C(F)(F)F)N1CCC(c2nn3c(c2C(F)(F)F)CCc2cc(F)ccc2-3)CC1` (stereo not drawn) [Compound 7, 1,1,1-trifluoro-3-hydroxypropan-2-yl 4-(7-fluoro-3-(trifluoromethyl)-4,5-dihydropyrazolo[1,5-a]quinolin-2-yl)piperidine-1-carboxylate], which IC50 [2] is on record?
A: The IC50 was 89.8 nM.

Q: And the “Experimental Results” value [1]?
A: Its value is “effective”.

Q: And the inhibition in vivo at 3 mg/kg [1]?
A: Its inhibition in vivo at 3 mg/kg is 56%.

Q: For `O=C(OC(CO)C(F)(F)F)N1CC2C(C1)C2c1cc2n(n1)-c1ccc(F)cc1CC2` (stereo not drawn) [Compound 12, 1,1,1-trifluoro-3-hydroxypropan-2-yl 6-(7-fluoro-4,5-dihydropyrazolo[1,5-a]quinolin-2-yl)-3-azabicyclo[3.1.0]hexane-3-carboxylate], which “Experimental Results” value [1] is on record?
A: The value was “effective”.

Q: And the inhibition in vivo at 3 mg/kg [1]?
A: Its inhibition in vivo at 3 mg/kg is 64%.

Q: What does the source list for `O=C(OC(C(F)(F)F)C(F)(F)F)N1CCC(c2cc3n(n2)-c2ncc(F)cc2CC3)CC1` [Compound 13, 1,1,1,3,3,3-hexafluoropropan-2-yl 4-(7-fluoro-4,5-dihydropyrazolo[1,5-a][1,8]naphthyridin-2-yl)piperidine-1-carboxylate]?
A: IC50 [2]: 9.1 nM; Experimental Results (analgesic activity in the formalin model) [1]: effective; inhibition in vivo at 3 mg/kg [1]: 49%

Q: Which IC50 [2] does the source give for `Cc1c(C2CCN(C(=O)OC(C(F)(F)F)C(F)(F)F)CC2)nn2c1CCc1cc(F)cnc1-2` [Compound 17, 1,1,1,3,3,3-hexafluoropropan-2-yl 4-(7-fluoro-3-methyl-4,5-dihydropyrazolo[1,5-a][1,8]naphthyridin-2-yl)piperidine-1-carboxylate] here?
A: Its IC50 is 126 nM.

Q: How did the IC50 [2] turn out when `N#Cc1c(C2CCN(C(=O)OC(C(F)(F)F)C(F)(F)F)CC2)nn2c1CCc1cc(F)cnc1-2` [Compound 18, 1,1,1,3,3,3-hexafluoropropan-2-yl 4-(3-cyano-7-fluoro-4,5-dihydropyrazolo[1,5-a][1,8]naphthyridin-2-yl)piperidine-1-carboxylate] was run?
A: The IC50 was 78.3 nM.

Q: `CC(C)c1c(C2CCN(C(=O)OC(C(F)(F)F)C(F)(F)F)CC2)nn2c1CCc1cc(F)cnc1-2` [Compound 21, 1,1,1,3,3,3-hexafluoropropan-2-yl 4-(7-fluoro-3-isopropyl-4,5-dihydropyrazolo[1,5-a][1,8]naphthyridin-2-yl)piperidine-1-carboxylate] was tested. Which IC50 [2] did it give?
A: Its IC50 is 152 nM.

Q: With `O=C(OC(C(F)(F)F)C(F)(F)F)N1CCC(c2nc3n(n2)-c2ccc(F)cc2CC3)CC1` [Compound 24, 1,1,1,3,3,3-hexafluoropropan-2-yl 4-(7-fluoro-4,5-dihydro-[1,2,4]triazolo[1,5-a]quinolin-2-yl)piperidine-1-carboxylate] as the compound, how does the “Experimental Results” value [1] read?
A: Its value is “effective”.

Q: What about the inhibition in vivo at 3 mg/kg [1] of the same compound?
A: The inhibition in vivo at 3 mg/kg was 50%.

Q: `O=C(OC(CO)C(F)(F)F)N1CCC(c2cn3c(n2)CCc2cc(F)ccc2-3)CC1` (stereo not drawn) [Compound 26, 1,1,1-trifluoro-3-hydroxypropan-2-yl 4-(7-fluoro-4,5-dihydroimidazo[1,2-a]quinolin-2-yl)piperidine-1-carboxylate] was tested. Which IC50 [2] did it give?
A: Its IC50 is 83.4 nM.

Q: Which IC50 [2] does the source give for `O=C(OC(CO)C(F)(F)F)N1CCC(c2nc3n(c2Br)-c2ccc(F)cc2CC3)CC1` (stereo not drawn) [Compound 28, 1,1,1-trifluoro-3-hydroxypropan-2-yl 4-(1-bromo-7-fluoro-4,5-dihydroimidazo[1,2-a]quinolin-2-yl)piperidine-1-carboxylate] here?
A: Its IC50 is 25.1 nM.

Q: Which IC50 [2] does the source give for `O=C(OC(CO)C(F)(F)F)N1CCC(c2nc3n(c2Br)-c2ncc(F)cc2CC3)CC1` (stereo not drawn) [Compound 31, 1,1,1-trifluoro-3-hydroxypropan-2-yl 4-(9-bromo-3-fluoro-5,6-dihydroimidazo[1,2-a][1,8]naphthyridin-8-yl)piperidine-1-carboxylate] here?
A: Its IC50 is 32.7 nM.

Q: For `CC(C)c1c(C2CCN(C(=O)OC(C(F)(F)F)C(F)(F)F)CC2)nn2c1ccc1cc(F)cnc12` [Compound 34, 1,1,1,3,3,3-hexafluoropropan-2-yl 4-(7-fluoro-3-isopropylpyrazolo[1,5-a][1,8]naphthyridin-2-yl)piperidine-1-carboxylate], which IC50 [2] is on record?
A: The IC50 was 12.5 nM.

Q: `O=C(OC(C(F)(F)F)C(F)(F)F)N1CCN(c2cc3n(n2)-c2ccc(F)cc2CC3)CC1` [Compound 35, 1,1,1,3,3,3-hexafluoropropan-2-yl 4-(7-fluoro-4,5-dihydropyrazolo[1,5-a]quinolin-2-yl)piperazine-1-carboxylate] was tested. Which IC50 [2] did it give?
A: Its IC50 is 13.1 nM.

From patent US20240400554A1, “MONOACYLGLYCEROL LIPASE (MAGL) INHIBITORS FOR THE TREATMENT OF PAIN AND RELATED MEDICAL DISORDERS” (Humanwell Pharmaceutical US, Inc., priority 2023, published 2024)
